# Reference: ChEMBL document CHEMBL2029348, “Synthesis, biological evaluation, and molecular docking studies of N,1,3-triphenyl-1H-pyrazole-4-carboxamide derivatives as anticancer agents” (Bioorg Med Chem Lett, 2012)
# Calls of active or inactive are those of the source. No cut-off for these calls is given here.
# Columns and labels:
# HCT-116 = test: Cytotoxicity against human HCT116 cells after 48 hrs by MTT assay; type: functional, cell-based; settings: HCT-116, 48 h
# Aurora kinase A = molecular target: T1, Aurora kinase A (Homo sapiens, UniProt O14965); test: Inhibition of human recombinant Aurora A kinase using biotinylated peptide substrate preincubated for 15 mins with compound measured after 30 mins by fluorescence analysis
# T1 sequence (O14965 whole entry): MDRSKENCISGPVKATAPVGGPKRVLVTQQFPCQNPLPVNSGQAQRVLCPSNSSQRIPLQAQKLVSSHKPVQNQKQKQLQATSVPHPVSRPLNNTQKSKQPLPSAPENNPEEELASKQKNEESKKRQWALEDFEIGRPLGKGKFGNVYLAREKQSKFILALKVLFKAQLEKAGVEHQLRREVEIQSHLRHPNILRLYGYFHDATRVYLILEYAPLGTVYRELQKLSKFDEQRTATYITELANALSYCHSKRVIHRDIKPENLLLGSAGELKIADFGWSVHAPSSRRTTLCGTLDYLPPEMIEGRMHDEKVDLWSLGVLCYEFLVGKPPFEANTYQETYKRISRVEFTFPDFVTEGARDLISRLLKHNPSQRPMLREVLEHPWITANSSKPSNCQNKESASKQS
# MCF7 = test: Cytotoxicity against human MCF7 cells after 48 hrs by MTT assay; type: functional, cell-based; settings: MCF7, 48 h
# [1] = molecular target: T2, Aurora kinase A (Homo sapiens) (UniProt O14965); test: Inhibition of Aurora A kinase in human HCT116 cells at 0.5 to 2 uM by Western blot analysis; type: cell-based; settings: HCT-116
# T2 sequence (whole entry): T1 sequence (O14965 whole entry)
Compound,IC50 (HCT-116),IC50 (Aurora kinase A),IC50 (MCF7),inhibition [1]
O=C(Nc1ccccc1)c1cn(-c2ccccc2)nc1-c1ccc([N+](=O)[O-])cc1,2.01 µM,2.1 µM,2.26 µM,–
CCOc1ccc(NC(=O)c2cn(-c3ccccc3)nc2-c2ccc(OC)cc2)cc1,0.97 µM,0.78 µM,1.1 µM,–
O=C(Nc1ccc(Br)cc1)c1cn(-c2ccccc2)nc1-c1ccccc1,4.47 µM,7.25 µM,5.75 µM,–
COc1ccc(NC(=O)c2cn(-c3ccccc3)nc2-c2ccc([N+](=O)[O-])cc2)cc1,1.02 µM,0.79 µM,1.21 µM,–
Cc1ccc(-c2nn(-c3ccccc3)cc2C(=O)Nc2ccc(Br)cc2)cc1,5.35 µM,7.32 µM,6.08 µM,–
CCOc1ccc(NC(=O)c2cn(-c3ccccc3)nc2-c2ccc(C)cc2)cc1,0.78 µM,0.65 µM,1.03 µM,–
COc1ccc(-c2nn(-c3ccccc3)cc2C(=O)Nc2ccc(Cl)cc2)cc1,4.06 µM,5.59 µM,4.35 µM,–
O=C(Nc1ccc(Cl)cc1)c1cn(-c2ccccc2)nc1-c1ccccc1,3.52 µM,3.57 µM,3.86 µM,–
CCOc1ccc(NC(=O)c2cn(-c3ccccc3)nc2-c2ccc(Cl)cc2)cc1,0.42 µM,0.22 µM,0.56 µM,–
COc1ccc(NC(=O)c2cn(-c3ccccc3)nc2-c2ccc(Cl)cc2)cc1,1.33 µM,0.84 µM,1.55 µM,–
COc1ccc(NC(=O)c2cn(-c3ccccc3)nc2-c2ccc(C)cc2)cc1,1.45 µM,1.45 µM,1.62 µM,–
O=C(Nc1ccccc1)c1cn(-c2ccccc2)nc1-c1ccc(Cl)cc1,2.18 µM,2.1 µM,2.34 µM,–
O=C(Nc1ccc(Br)cc1)c1cn(-c2ccccc2)nc1-c1ccc(Cl)cc1,4.36 µM,5.71 µM,5.31 µM,–
O=C(Nc1ccc(Cl)cc1)c1cn(-c2ccccc2)nc1-c1ccc([N+](=O)[O-])cc1,2.92 µM,3.04 µM,3.24 µM,–
COc1ccc(NC(=O)c2cn(-c3ccccc3)nc2-c2ccccc2)cc1,1.35 µM,1.33 µM,1.71 µM,–
O=C(Nc1ccc(Cl)cc1)c1cn(-c2ccccc2)nc1-c1ccc(Cl)cc1,2.99 µM,3.18 µM,3.75 µM,–
COc1ccc(-c2nn(-c3ccccc3)cc2C(=O)Nc2ccc(Br)cc2)cc1,5.87 µM,12.4 µM,8.21 µM,–
O=C(Nc1ccccc1)c1cn(-c2ccccc2)nc1-c1ccccc1,2.31 µM,2.34 µM,2.34 µM,–
COc1ccc(-c2nn(-c3ccccc3)cc2C(=O)Nc2ccccc2)cc1,2.54 µM,2.78 µM,2.53 µM,–
CCOc1ccc(NC(=O)c2cn(-c3ccccc3)nc2-c2ccc([N+](=O)[O-])cc2)cc1,0.39 µM,0.16 µM,0.46 µM,Active
Cc1ccc(-c2nn(-c3ccccc3)cc2C(=O)Nc2ccc(Cl)cc2)cc1,3.88 µM,4.79 µM,4.01 µM,–
CCOc1ccc(NC(=O)c2cn(-c3ccccc3)nc2-c2ccccc2)cc1,0.62 µM,0.42 µM,0.88 µM,–
Cc1ccc(-c2nn(-c3ccccc3)cc2C(=O)Nc2ccccc2)cc1,2.36 µM,2.65 µM,2.45 µM,–
COc1ccc(NC(=O)c2cn(-c3ccccc3)nc2-c2ccc(OC)cc2)cc1,1.52 µM,1.62 µM,1.77 µM,–
Cc1cc(Nc2cc(N3CCN(C)CC3)nc(Sc3ccc(NC(=O)C4CC4)cc3)n2)n[nH]1 [TOZASERTIB],–,–,0.38 µM,–
O=C(Nc1ccc(Br)cc1)c1cn(-c2ccccc2)nc1-c1ccc([N+](=O)[O-])cc1,4.08 µM,5.52 µM,5.3 µM,–
